Laboratory results: PubChem BioAssay AID328 (DTP/NCI, 2004)
“And” between values parts separate entries of the source, which are not always exact repeats. Equal values may be shown once. Toxic doses and inconclusive results are not listed.

Test system: BDF1 mice, P388 leukemia ip, median survival T/C
Test: NCI In Vivo Anticancer Drug Screen. Data for tumor model P388 Leukemia (intraperitoneal) in B6D2F1 (BDF1) mice
Settings: endpoint: median survival time, higher = longer survival
Procedure, shortened: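 Antitumour effect was judged in vivo: survival in drug-treated mice, normalised to that of vehicle-dosed controls, gives the reported T/C.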

[1] = dose: 6.25 mg/kg/injection, schedule: Q01DX009 (ip), vehicle: saline
[2] = dose: 12.5 mg/kg/injection, schedule: Q01DX009 (ip), vehicle: saline
[3] = dose: 25.0 mg/kg/injection, schedule: Q01DX009 (ip), vehicle: saline
[4] = dose: 50.0 mg/kg/injection, schedule: Q01DX009 (ip), vehicle: saline

## CN(C)CCCNc1ccc(O)c2c1C(=O)c1ccccc1C2=O
[1]
  T/C: 91 % of control
[2]
  T/C: 110 % of control and 114 % of control
[3]
  T/C: 103 % of control and 109 % of control and 112 % of control
dose: 100.0 mg/kg/injection, schedule: Q04DX003 (ip), vehicle: saline
  T/C: 96 % of control
dose: 200.0 mg/kg/injection, schedule: Q04DX003 (ip), vehicle: saline
  T/C: 112 % of control

## CCCCCCCCCCCCCCCCNCCO
dose: 50.0 mg/kg/injection, schedule: Q01DX009 (ip), vehicle: Klucel (hydroxypropylcellulose) (HPC)
  T/C: 110 % of control
dose: 100.0 mg/kg/injection, schedule: Q01DX009 (ip), vehicle: Klucel (hydroxypropylcellulose) (HPC)
  T/C: 112 % of control

## OC(CBr)(c1ccccc1)c1ccccc1
dose: 12.5 mg/kg/injection, schedule: Q04DX003 (ip), vehicle: saline with Tween-80
  T/C: 95 % of control
dose: 50.0 mg/kg/injection, schedule: Q04DX003 (ip), vehicle: saline with Tween-80
  T/C: 100 % of control and 115 % of control
dose: 100.0 mg/kg/injection, schedule: Q04DX003 (ip), vehicle: saline with Tween-80
  T/C: 99 % of control
dose: 200.0 mg/kg/injection, schedule: Q04DX003 (ip), vehicle: saline with Tween-80
  T/C: 112 % of control
dose: 400.0 mg/kg/injection, schedule: Q04DX003 (ip), vehicle: saline with Tween-80
  T/C: 111 % of control

## O=C1c2ccccc2C(=O)c2c(NCCNCCO)ccc(NCCNCCO)c21
dose: 2.0 mg/kg/injection, schedule: Q01DX009 (ip), vehicle: water
  T/C: 163 % of control
dose: 3.12 mg/kg/injection, schedule: Q01DX009 (ip), vehicle: saline
  T/C: 262 % of control and 403 % of control and 239 % of control
dose: 4.0 mg/kg/injection, schedule: Q01DX009 (ip), vehicle: water
  T/C: 111 % of control
dose: 4.0 mg/kg/injection, schedule: Q04DX003 (ip), vehicle: saline with Tween-80
  T/C: 154 % of control
[1]
  T/C: 502 % of control and 202 % of control and 189 % of control
dose: 8.0 mg/kg/injection, schedule: Q01DX009 (ip), vehicle: water
  T/C: 96 % of control
dose: 8.0 mg/kg/injection, schedule: Q04DX003 (ip), vehicle: saline with Tween-80
  T/C: 165 % of control
[2]
  T/C: 503 % of control and 517 % of control
dose: 13.0 mg/kg/injection, schedule: Q04DX003 (ip), vehicle: saline + alcohol
  T/C: 222 % of control
dose: 16.0 mg/kg/injection, schedule: Q04DX003 (ip), vehicle: saline with Tween-80
  T/C: 165 % of control
dose: 21.6 mg/kg/injection, schedule: Q04DX003 (ip), vehicle: saline + alcohol
  T/C: 321 % of control
[3]
  T/C: 517 % of control
dose: 32.0 mg/kg/injection, schedule: Q04DX003 (ip), vehicle: saline with Tween-80
  T/C: 192 % of control
dose: 36.0 mg/kg/injection, schedule: Q04DX003 (ip), vehicle: saline + alcohol
  T/C: 311 % of control
[4]
  T/C: 74 % of control
dose: 60.0 mg/kg/injection, schedule: Q04DX003 (ip), vehicle: saline + alcohol
  T/C: 201 % of control
dose: 64.0 mg/kg/injection, schedule: Q04DX003 (ip), vehicle: saline with Tween-80
  T/C: 274 % of control

## CC12CCCCC1C/C(=N/NC(N)=O)CC2 (stereo not drawn)
dose: 5.0 mg/kg/injection, schedule: Q01DX001 (ip), vehicle: saline
  T/C: 100 % of control
dose: 10.0 mg/kg/injection, schedule: Q01DX001 (ip), vehicle: saline
  T/C: 100 % of control
dose: 20.0 mg/kg/injection, schedule: Q01DX001 (ip), vehicle: saline
  T/C: 100 % of control
dose: 40.0 mg/kg/injection, schedule: Q01DX001 (ip), vehicle: saline
  T/C: 104 % of control

## CCOC(=O)C(Br)C(=O)OCC
[1]
  T/C: 100 % of control
[2]
  T/C: 100 % of control
dose: 12.5 mg/kg/injection, schedule: Q04DX003 (ip), vehicle: saline
  T/C: 110 % of control
[3]
  T/C: 95 % of control
dose: 25.0 mg/kg/injection, schedule: Q04DX003 (ip), vehicle: saline
  T/C: 110 % of control
[4]
  T/C: 86 % of control
dose: 50.0 mg/kg/injection, schedule: Q04DX003 (ip), vehicle: saline
  T/C: 105 % of control

## CCOC(=O)Nc1nc(NC(=O)OCC)c(Cl)nc1Cl
dose: 12.5 mg/kg/injection, schedule: Q01DX009 (ip), vehicle: water
  T/C: 113 % of control
dose: 12.5 mg/kg/injection, schedule: Q04DX003 (ip), vehicle: water
  T/C: 90 % of control and 104 % of control
dose: 25.0 mg/kg/injection, schedule: Q01DX009 (ip), vehicle: water
  T/C: 99 % of control
dose: 25.0 mg/kg/injection, schedule: Q04DX003 (ip), vehicle: water
  T/C: 92 % of control and 104 % of control
dose: 50.0 mg/kg/injection, schedule: Q01DX009 (ip), vehicle: water
  T/C: 111 % of control
dose: 50.0 mg/kg/injection, schedule: Q04DX003 (ip), vehicle: water
  T/C: 102 % of control
dose: 100.0 mg/kg/injection, schedule: Q01DX009 (ip), vehicle: water
  T/C: 99 % of control
dose: 100.0 mg/kg/injection, schedule: Q04DX003 (ip), vehicle: water
  T/C: 100 % of control and 101 % of control
dose: 200.0 mg/kg/injection, schedule: Q01DX009 (ip), vehicle: water
  T/C: 90 % of control
dose: 200.0 mg/kg/injection, schedule: Q04DX003 (ip), vehicle: water
  T/C: 94 % of control and 96 % of control
dose: 400.0 mg/kg/injection, schedule: Q01DX009 (ip), vehicle: water
  T/C: 101 % of control
dose: 400.0 mg/kg/injection, schedule: Q04DX003 (ip), vehicle: water
  T/C: 112 % of control
dose: 500.0 mg/kg/injection, schedule: Q04DX003 (ip), vehicle: water
  T/C: 96 % of control
